In ChEMBL document CHEMBL3425398, “(Dis)similar Analogues of Riboswitch Metabolites as Antibacterial Lead Compounds” (J Med Chem, 2015):
Converted amounts (≈) assume the structure as drawn. One block for each compound: values may come before it.

How the values were obtained:
[1] = Binding affinity to guanine riboswitch in Bacillus subtilis
Bacillus subtilis = assay: Antibacterial activity against Bacillus subtilis in chemical defined medium; type: functional
[2] = Binding affinity to lysC riboswitch in Bacillus subtilis
Staphylococcus aureus [3] = assay: Antibacterial activity against Staphylococcus aureus in rich cation-adjusted Muller-Hinton broth in presence of 1.5 mM DTT; type: functional
Staphylococcus aureus [4] = assay: Antibacterial activity against Staphylococcus aureus in rich cation-adjusted Muller-Hinton broth; type: functional
[5] = Activation of glmS riboswitch in Bacillus subtilis
[6] = Activation of glmS riboswitch in Staphylococcus aureus
[7] = Binding affinity to TPP riboswitch in Bacillus subtilis
[8] = Binding affinity to TPP riboswitch in Escherichia coli
[9] = Binding affinity to thiM riboswitch in Escherichia coli
[10] = Binding affinity to thiC riboswitch in Escherichia coli

Kd [1]: 0.5 nM
Compound: CC(=O)Nc1nc(=O)c2[nH]cnc2[nH]1

MIC (Bacillus subtilis): 26 µM (≈ 3.85 µg/mL)
Kd [2]: 13000 nM
Compound: NCCOC[C@H](N)C(=O)O

MIC (Staphylococcus aureus [3]): 14 µM
Kd [1]: 100 nM
MIC (Staphylococcus aureus [4]): 4000 µM (≈ 565 µg/mL)
Compound: Nc1nc(N)c(N)c(=O)[nH]1

EC50 [5]: 200000 nM
Compound: N[C@H]1C(O)O[C@H](COP(=O)(O)O)[C@@H](O)[C@@H]1O (stereo partly specified)

EC50 [6]: 6200 nM
Compound: N[C@@H]1[C@@H](O)[C@H](O)[C@@H](COP(=O)(O)O)C[C@@H]1O

Kd [7]: 160 nM
Compound: Cc1ncc(C[n+]2cccc(CCOP(=O)([O-])OP(=O)(O)O)c2C)c(N)n1

Compound: Cc1ncc(Cn2cc(CCOP(=O)(O)OP(=O)(O)O)nn2)c(N)n1
Kd [8]: 370 nM

Compound: Cc1ncc(Cn2nnc(CCOP(=O)(O)CP(=O)(O)O)c2C)c(N)n1
Kd [8]: 9 nM

Kd [1]: 20 nM
Compound: Nc1nc2[nH]cnc2/c(=N\O)[nH]1

MIC (Bacillus subtilis): 26 µM (≈ 4.27 µg/mL)
Kd [2]: 30000 nM
Compound: NCCSC[C@H](N)C(=O)O

Kd [2]: 7000 nM
Compound: N=C(N)NCCCC[C@H](N)C(=O)O

Kd [2]: 970 nM
Compound: NC/C=C/CC(N)C(=O)O (racemic)

Compound: Nc1nc2[nH]cnc2c(=O)[nH]1 [GUANINE]
Kd [1]: 5 nM

Compound: NCCCC[C@H](N)C(=O)O [LYSINE]
Kd [2]: 360 nM

Kd [7]: 50 nM
Compound: Cc1ncc(C[n+]2csc(CCOP(=O)([O-])OP(=O)(O)O)c2C)c(N)n1 [THIAMIN DIPHOSPHATE]
Kd [9]: 600 nM
Kd [10]: 100 nM
